Among the data in patent US20240109918A1, “HETEROCYCLIC COMPOUNDS AND USES THEREOF” (Kumquat Biosciences Inc., priority 2022, published 2024) are IC50 values, retold here.

Each structure is given as a SMILES string.

One experiment addresses T1, KRASwt (Homo sapiens, UniProt P01116).
T1 construct: made in house; host or cells: E. coli BL21 (DE3)
In words: Bio-Biochem-PPI-HTRF Ras-SOS1 interaction assay (KRAS wt). The format is biochemical. The note with it: 5 nM. As to the method:
(§1) The assay buffer can contain −5 mM HEPES pH 7.4, ˜150 mM NaCl, ˜ 1 mM DTT, 0.05% BSA and 0.0025% (v/v) Igepal. A Ras working solution is prepared in an assay buffer containing typically a suitable amount of the protein construct (e.g., GST-tagged K-Ras mutant) and the FRET donor (e.g., antiGST-Eu(K) from Cisbio, France). A SOS1 working solution is prepared in an assay buffer containing suitable amount of the protein construct (e.g., His-hSOS1) and the FRET acceptor (e.g., anti-6His-XL665 from Cisbio, France). A suitable amount of the protein construct will depend on the range of activity or range of IC50 values being detected or under investigation. For detecting IC50 within a range of 500 nM, the protein constructs of the same range of molarity can be utilized. […] A fixed volume of DMSO with or without test compound is transferred into a 384-well plate. Ras working solution is added to all wells of the test plate. SOS1 working solution is added to all wells except for those that are subsequently filled the inhibitor control solution. Upon incubation for about 10 minutes or longer, the fluorescence is measured with a M1000Pro plate reader (Tecan) using HTRF detection (excitation 337 nm, emission 1:620 nm, emission 2: 665 nm). Compounds are tested in duplicates at different concentrations (for example, 10 μM, 2.5 μM, 0.63 μM, 0.16 μM, 0.04 μM, 0.01 μM test compound). The ratiometric data (i.e., emission 2 divided by emission 1) is used to calculate IC50 values against Ras using GraphPad Prism (GraphPad software). Following this general procedure, samples were tested with or without a subject compound disclosed herein including compounds exemplified in Table 1 to assess their abilities to inhibit a mutant K-Ras relative to another mutant K-Ras or wildtype K-Ras. Signaling output measured in terms of IC50 values can be obtained, a ratio of IC50 against one mutant relative to another mutant can be calculated. For instance, a selective reduction of K-Ras G12D signaling output can be evidenced by a ratio greater than one. In particular, a selective reduction of K-Ras G12D signaling relative to K-Ras WT signaling is evidenced as the ratio of IC50 (against K-Ras WT) to IC50 (against K-Ras G12D) is greater than 1.
For orientation: In TR-FRET formats the signal depends on donor and acceptor labels being close together.

The next experiment deals with T2, KRASG12D (Homo sapiens, UniProt P01116, G12D).
T2 construct: made in house; host or cells: E. coli BL21 (DE3)
The experiment is described as follows: Bio-Biochem-PPI-HTRF Ras-SOS1 interaction assay (KRAS G12D). The format is biochemical. The note with it: 5 nM. Here is the method:
as §1

T2 sequence (P01116 1-188 isoform P01116-2 G12D): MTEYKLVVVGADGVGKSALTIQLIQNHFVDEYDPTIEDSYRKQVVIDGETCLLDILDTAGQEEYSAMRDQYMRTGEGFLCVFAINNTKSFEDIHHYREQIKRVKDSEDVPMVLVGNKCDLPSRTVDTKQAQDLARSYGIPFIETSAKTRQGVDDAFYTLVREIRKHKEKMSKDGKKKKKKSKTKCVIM
T1 sequence (P01116 1-188 isoform P01116-2): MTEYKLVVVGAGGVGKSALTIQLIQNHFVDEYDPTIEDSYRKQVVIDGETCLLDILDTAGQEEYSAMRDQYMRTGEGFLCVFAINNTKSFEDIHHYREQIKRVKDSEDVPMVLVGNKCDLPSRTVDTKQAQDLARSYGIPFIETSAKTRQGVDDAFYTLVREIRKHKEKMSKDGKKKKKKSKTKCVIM

Turning to `CN1CCC[C@H]1COc1nc(N2CCOC3(CNC3)C2)c2cc(Cl)c(-c3ccc(F)c4sc(N)c(C#N)c34)c(F)c2n1` (single isomer, unassigned) [compound 114], the IC50 at KRASwt and against KRASG12D was below 5 µM in each case.

As for `N#Cc1c(N)sc2c(F)ccc(-c3c(Cl)cc4c(N5CCCCC6(CN(C(=O)[C@H]7CC7(F)F)C6)C5)nc(OC[C@@]56CCCN5C[C@H](F)C6)nc4c3F)c12` (single isomer, unassigned) [compound 118], the IC50 against KRASwt and at KRASG12D was below 5 µM throughout.

Turning to `N#Cc1c(N)sc2c(F)ccc(-c3c(Cl)cc4c(N5CCOC6(CN(C(=O)[C@H]7CC7(F)F)C6)C5)nc(OC[C@@]56CCCN5C[C@H](F)C6)nc4c3F)c12` (single isomer, unassigned) [compound 176], the half-inhibitory concentration (IC50) against KRASwt and at KRASG12D was below 5 µM throughout.

In the case of `C[C@H](Oc1nc(N2CCOC3(CNC3)C2)c2cc(Cl)c(-c3ccc(F)c4sc(N)c(C#N)c34)c(F)c2n1)[C@@H]1CCCN1C` (single isomer, unassigned; atropisomer 1) [compound 128], the half-inhibitory concentration (IC50) is below 5 µM against KRASwt and at least 5 µM against KRASG12D.

For `CN1CCC[C@H]1COc1nc(N2CCOC3(CNC3)C2)c2cc(Cl)c(-c3ccc(F)c4sc(N)c(C#N)c34)c(F)c2n1` (single isomer, unassigned; atropisomer 2) [compound 121], the IC50 against KRASG12D was below 5 µM.

Turning to `N#Cc1c(N)sc2c(F)ccc(-c3c(Cl)cc4c(N5CCCCC6(CN(C(=O)N7CC(C(F)F)C7)C6)C5)nc(OC[C@@]56CCCN5C[C@H](F)C6)nc4c3F)c12` [compound 262, 2-amino-4-(6-chloro-4-(2-(3-(difluoromethyl)azetidine-1-carbonyl)-2,6-diazaspiro[3.6]decan-6-yl)-8-fluoro-2-(((2R,7aS)-2-fluorotetrahydro-1H-pyrrolizin-7a(5H)-yl)methoxy)quinazolin-7-yl)-7-fluorobenzo[b]thiophene-3-carbonitrile], the IC50 against KRASG12D is below 5 µM.

`N#Cc1c(N)sc2c(F)ccc(-c3c(Cl)cc4c(N5CCCCC6(CN(C(=O)N7CC[C@H]7C#N)C6)C5)nc(OC[C@@]56CCCN5C[C@H](F)C6)nc4c3F)c12` [compound 264, (2S)-1-(6-(7-(2-amino-3-cyano-7-fluorobenzo[b]thiophen-4-yl)-6-chloro-8-fluoro-2-(((2R,7aS)-2-fluorotetrahydro-1H-pyrrolizin-7a(5H)-yl)methoxy)quinazolin-4-yl)-2,6-diazaspiro[3.6]decane-2-carbonyl)azetidine-2-carbonitrile]: the IC50 on KRASG12D is below 5 µM.

In turn, `N#Cc1c(N)sc2c(F)ccc(-c3c(Cl)cc4c(N5CCCCC6(CN(C(=O)C7CC7)C6)C5)nc(OC[C@@]56CCCN5C[C@H](F)C6)nc4c3F)c12` [compound 281, 2-amino-4-(6-chloro-4-(2-(cyclopropanecarbonyl)-2,6-diazaspiro[3.6]decan-6-yl)-8-fluoro-2-(((2R,7aS)-2-fluorotetrahydro-1H-pyrrolizin-7a(5H)-yl)methoxy)quinazolin-7-yl)-7-fluorobenzo[b]thiophene-3-carbonitrile] yielded an IC50 against KRASG12D below 5 µM.

For `N#Cc1c(N)sc2c(F)ccc(-c3c(Cl)cc4c(N5CCCCC6(CN(C(=O)C(F)Cl)C6)C5)nc(OC[C@@]56CCCN5C[C@H](F)C6)nc4c3F)c12` (stereo partly drawn) [compound 291, 2-amino-4-(6-chloro-4-(2-(2-chloro-2-fluoroacetyl)-2,6-diazaspiro[3.6]decan-6-yl)-8-fluoro-2-(((2R,7aS)-2-fluorotetrahydro-1H-pyrrolizin-7a(5H)-yl)methoxy)quinazolin-7-yl)-7-fluorobenzo[b]thiophene-3-carbonitrile], the IC50 against KRASG12D was below 5 µM.

Turning to `N#Cc1c(N)sc2c(F)ccc(-c3c(Cl)cc4c(N5CCCCC6(CN(C(=O)C7CC(C#N)C7)C6)C5)nc(OC[C@@]56CCCN5C[C@H](F)C6)nc4c3F)c12` (stereo partly drawn) [compound 295, 2-amino-4-(6-chloro-4-(2-(3-cyanocyclobutane-1-carbonyl)-2,6-diazaspiro[3.6]decan-6-yl)-8-fluoro-2-(((2R,7aS)-2-fluorotetrahydro-1H-pyrrolizin-7a(5H)-yl)methoxy)quinazolin-7-yl)-7-fluorobenzo[b]thiophene-3-carbonitrile], the IC50 on KRASG12D is below 5 µM.

Consider `N#Cc1c(N)sc2c(F)ccc(-c3c(Cl)cc4c(N5CCCCC6(CN(C(=O)CC7COC7)C6)C5)nc(OC[C@@]56CCCN5C[C@H](F)C6)nc4c3F)c12` [compound 297, 2-amino-4-(6-chloro-8-fluoro-2-(((2R,7aS)-2-fluorotetrahydro-1H-pyrrolizin-7a(5H)-yl)methoxy)-4-(2-(2-(oxetan-3-yl)acetyl)-2,6-diazaspiro[3.6]decan-6-yl)quinazolin-7-yl)-7-fluorobenzo[b]thiophene-3-carbonitrile], for which the 50% inhibitory concentration (IC50) on KRASG12D is below 5 µM.

`N#Cc1c(N)sc2c(F)ccc(-c3c(Cl)cc4c(N5CCCCC6(CN(C(=O)C7C8COCC87)C6)C5)nc(OC[C@@]56CCCN5C[C@H](F)C6)nc4c3F)c12` (stereo partly drawn) [compound 299, 4-(4-(2-(3-oxabicyclo[3.1.0]hexane-6-carbonyl)-2,6-diazaspiro [3.6]decan-6-yl)-6-chloro-8-fluoro-2-(((2R,7aS)-2-fluorotetrahydro-1H-pyrrolizin-7a(5H)-yl)methoxy)quinazolin-7-yl)-2-amino-7-fluorobenzo[b]thiophene-3-carbonitrile]: on KRASG12D, the 50% inhibitory concentration (IC50) is below 5 µM.

Regarding `N#Cc1c(N)sc2c(F)ccc(-c3c(Cl)cc4c(N5CCCCC6(CN(C(=O)N7CC(F)(F)C7)C6)C5)nc(OC[C@@]56CCCN5C[C@H](F)C6)nc4c3F)c12` [compound 307, 2-amino-4-(6-chloro-4-(2-(3,3-difluoroazetidine-1-carbonyl)-2,6-diazaspiro[3.6]decan-6-yl)-8-fluoro-2-(((2R,7aS)-2-fluorotetrahydro-1H-pyrrolizin-7a(5H)-yl)methoxy)quinazolin-7-yl)-7-fluorobenzo[b]thiophene-3-carbonitrile], on KRASG12D, the IC50 was below 5 µM.

In the case of `N#Cc1c(N)sc2c(F)ccc(-c3c(Cl)cc4c(N5CCCCC6(CN(C(=O)C7CC78CCOC8)C6)C5)nc(OC[C@@]56CCCN5C[C@H](F)C6)nc4c3F)c12` (stereo partly drawn) [compound 310, 4-(4-(2-(5-oxaspiro[2.4]heptane-1-carbonyl)-2,6-diazaspiro[3.6]decan-6-yl)-6-chloro-8-fluoro-2-(((2R,7aS)-2-fluorotetrahydro-1H-pyrrolizin-7a(5H)-yl)methoxy)quinazolin-7-yl)-2-amino-7-fluorobenzo [b]thiophene-3-carbonitrile], on KRASG12D, the concentration for half-maximal inhibition (IC50) is below 5 µM.

Turning to `N#Cc1c(N)sc2c(F)ccc(-c3c(Cl)cc4c(N5CCCCC6(CN(C(=O)NC7(C(F)(F)F)CC7)C6)C5)nc(OC[C@@]56CCCN5C[C@H](F)C6)nc4c3F)c12` [compound 315, 6-(7-(2-amino-3-cyano-7-fluorobenzo[b]thiophen-4-yl)-6-chloro-8-fluoro-2-(((2R,7aS)-2-fluorotetrahydro-1H-pyrrolizin-7a(5H)-yl)methoxy)quinazolin-4-yl)-N-(1-(trifluoromethyl)cyclopropyl)-2,6-diazaspiro[3.6]decane-2-carboxamide], the 50% inhibitory concentration (IC50) against KRASG12D was below 5 µM.

In turn, `N#Cc1c(N)sc2c(F)ccc(-c3c(Cl)cc4c(N5CCCCC6(CN(C(=O)C78CC(C#N)(C7)C8)C6)C5)nc(OC[C@@]56CCCN5C[C@H](F)C6)nc4c3F)c12` [compound 321, 2-amino-4-(6-chloro-4-(2-(3-cyanobicyclo[1.1.1]pentane-1-carbonyl)-2,6-diazaspiro[3.6]decan-6-yl)-8-fluoro-2-(((2R,7aS)-2-fluorotetrahydro-1H-pyrrolizin-7a(5H)-yl)methoxy)quinazolin-7-yl)-7-fluorobenzo[b]thiophene-3-carbonitrile] came in with a concentration for half-maximal inhibition (IC50) at KRASG12D below 5 µM.

For `N#Cc1c(N)sc2c(F)ccc(-c3c(Cl)cc4c(N5CCCCC6(CN(C(=O)CC7CC7(F)F)C6)C5)nc(OC[C@@]56CCCN5C[C@H](F)C6)nc4c3F)c12` (stereo partly drawn) [compound 331, 2-amino-4-(6-chloro-4-(2-(2-(2,2-difluorocyclopropyl)acetyl)-2,6-diazaspiro[3.6]decan-6-yl)-8-fluoro-2-(((2R,7aS)-2-fluorotetrahydro-1H-pyrrolizin-7a(5H)-yl)methoxy)quinazolin-7-yl)-7-fluorobenzo[b]thiophene-3-carbonitrile], the IC50 against KRASG12D was below 5 µM.

For orientation: IC50 means the concentration at which inhibition is half-maximal. A low value points to greater potency in that assay.
